Measured values taken from patent US20220380374A1, “1,4-DIHYDROBENZO[D]PYRAZOLO[3,4-F][1,3]DIAZEPINE DERIVATIVES AND RELATED COMPOUNDS AS LRRK2, NUAK1 AND/OR TYK2 KINASE MODULATORS FOR THE TREATMENT OF E.G. AUTOIMMUNE DISEASE” (Origenis GMBH, priority 2019, published 2022).
pIC50: −log10 of the molar value.

What was measured:
[1] = target: T1, wt human NUAK1, full length (Homo sapiens, UniProt O60285); experiment: TR-FRET LanthaScreen Eu Kinase Binding Assay, NUAK1; conditions: 5 nM Kinase Tracer 236; read-out: IC50, inhibitory activity toward NUAK1
T1 construct: 8 nM wt human NUAK1, full length (ThermoFisher/USA); purchased ThermoFisher/USA
T1 sequence (O60285 1-661): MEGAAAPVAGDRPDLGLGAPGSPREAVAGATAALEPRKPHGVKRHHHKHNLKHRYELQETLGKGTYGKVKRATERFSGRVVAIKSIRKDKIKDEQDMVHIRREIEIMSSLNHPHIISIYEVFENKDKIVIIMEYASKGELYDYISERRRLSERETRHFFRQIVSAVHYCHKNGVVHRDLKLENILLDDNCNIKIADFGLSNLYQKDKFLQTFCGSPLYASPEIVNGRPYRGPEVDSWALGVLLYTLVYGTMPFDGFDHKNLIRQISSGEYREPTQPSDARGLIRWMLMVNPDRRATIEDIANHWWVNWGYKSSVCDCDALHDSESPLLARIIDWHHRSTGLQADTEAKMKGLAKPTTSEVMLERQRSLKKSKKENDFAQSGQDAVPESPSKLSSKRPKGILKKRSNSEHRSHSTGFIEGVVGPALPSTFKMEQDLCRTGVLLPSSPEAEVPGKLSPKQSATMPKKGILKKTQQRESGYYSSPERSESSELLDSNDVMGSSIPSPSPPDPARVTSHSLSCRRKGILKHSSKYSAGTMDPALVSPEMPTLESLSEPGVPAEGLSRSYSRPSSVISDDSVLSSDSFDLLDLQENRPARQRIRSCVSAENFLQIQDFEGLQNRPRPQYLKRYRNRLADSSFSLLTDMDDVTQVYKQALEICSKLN
Procedure, shortened: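 TR-FRET tracer-displacement binding with 8 nM full-length wild-type human NUAK1, 2 nM Eu-anti-His antibody and 5 nM Kinase Tracer 236 in 1× Kinase Buffer A (final). Compound, kinase/antibody and tracer incubated 1 h at room temperature; emission ratios analysed per kit protocol.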

[2] = target: T2, wt human TYK2, catalytic site (Homo sapiens, UniProt P29597); experiment: HTRF KinEASE assay, TYK2; type: biochemical; conditions: 1 μM ATP; read-out: IC50, inhibitory activity toward TYK2
T2 construct: 2 nM wt human TYK2, catalytic site (SignalChem/CAN); purchased SignalChem/CAN
T2 sequence (P29597 897-1176 limits assumed): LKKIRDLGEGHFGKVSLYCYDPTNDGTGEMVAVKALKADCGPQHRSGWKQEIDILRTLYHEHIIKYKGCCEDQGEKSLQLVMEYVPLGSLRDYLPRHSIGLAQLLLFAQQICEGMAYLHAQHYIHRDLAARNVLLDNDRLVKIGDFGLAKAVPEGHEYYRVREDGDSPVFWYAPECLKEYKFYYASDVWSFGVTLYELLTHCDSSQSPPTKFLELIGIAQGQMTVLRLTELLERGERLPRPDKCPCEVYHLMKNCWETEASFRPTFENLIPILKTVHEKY
Protocol: Basic protocol for HTRF KinEASE assay (Cisbio/FRA) inhibitor studies involved two steps: Enzymatic step: Addition of 4 μl of test compound in corresponding DMSO dilutions, 4 μl of kinase/substrate mixture, 2 μl of ATP into 384 well small volume plates. Incubation for at least 30 minutes at room temperature.
Detection step: Addition of 5 μl antibody and 5 μl streptavidin-XL665, read plate after 60 minutes. Data analysis of emission ratios according to KinEASE assay protocol.
Kinase and assay components were adjusted to final concentrations according to the kit protocol. For TYK2: 2 nM wt human TYK2, catalytic site (SignalChem/CAN), 1 μM HTRF KinEASE-TK Substrate-biotin, 1 μM ATP in 1× Kinase Buffer

pIC50 [1] | pIC50 [2] | SMILES
6.00 to 7.00 | > 8.00 | Fc1cc2c(cc1-c1ccnnc1)N=C(c1c(Cl)cccc1Cl)Nc1c[nH]nc1-2 [Compound 229, 5-(2,6-dichlorophenyl)-9-fluoro-8-(pyridazin-4-yl)-2,4-dihydrobenzo[d]pyrazolo[3,4-f][1,3]diazepine]
7.00 to 8.00 | 6.00 to 7.00 | Fc1cccc(F)c1C1=Nc2cn[nH]c2-c2cc(Cl)cnc2N1 [Compound 64, 9-chloro-5-(2,6-difluorophenyl)-1,6-dihydropyrazolo[4,3-d]pyrido[3,2-f][1,3]diazepine]
7.00 to 8.00 | > 8.00 | Fc1ccc(-c2ccc3c(c2)N=C(c2c(Cl)cccc2Cl)Nc2c[nH]nc2-3)cc1 [Compound 242, 5-(2,6-dichlorophenyl)-8-(4-fluorophenyl)-2,4-dihydrobenzo[d]pyrazolo[3,4-f][1,3]diazepine]
6.00 to 7.00 | 7.00 to 8.00 | Fc1cc2c(cc1OC1CCOCC1)N=C(c1c(F)cccc1C(F)(F)F)Nc1c[nH]nc1-2 [Compound 223, 9-fluoro-5-(2-fluoro-6-(trifluoromethyl)phenyl)-8-((tetrahydro-2H-pyran-4-yl)oxy)-2,4-dihydrobenzo[d]pyrazolo[3,4-f][1,3]diazepine]
7.00 to 8.00 | 7.00 to 8.00 | Fc1cccc(Cl)c1C1=Nc2cnc(Cl)cc2-c2n[nH]cc2N1 [Compound 190, 9-chloro-5-(2-chloro-6-fluorophenyl)-2,4-dihydropyrazolo[4,3-d]pyrido[4,3-f][1,3]diazepine]
7.00 to 8.00 | 7.00 to 8.00 | CC(C)Oc1cc2c(cc1F)-c1n[nH]cc1N=C(c1c(F)cccc1Cl)N2 [Compound 235, 5-(2-chloro-6-fluorophenyl)-9-fluoro-8-isopropoxy-2,6-dihydrobenzo[d]pyrazolo[3,4-f][1,3]diazepine]
7.00 to 8.00 | 6.00 to 7.00 | Cc1cc(F)c2c(c1)-c1[nH]nc(Cl)c1NC(c1c(F)cccc1F)=N2 [Compound 166, 3-chloro-5-(2,6-difluorophenyl)-7-fluoro-9-methyl-1,4-dihydrobenzo[d]pyrazolo[3,4-f][1,3]diazepine]
7.00 to 8.00 | 6.00 to 7.00 | Cc1ccc2c(c1)-c1[nH]ncc1N=C(c1c(F)cc(NCCF)cc1F)N2 [Compound 126, 3,5-difluoro-N-(2-fluoroethyl)-4-(9-methyl-1,6-dihydrobenzo[d]pyrazolo[3,4-f][1,3]diazepin-5-yl)aniline]
7.00 to 8.00 | 7.00 to 8.00 | O=C(NCCF)c1cc2c(cc1F)-c1n[nH]cc1N=C(c1c(F)cccc1F)N2 [Compound 216, 5-(2,6-difluorophenyl)-9-fluoro-N-(2-fluoroethyl)-2,6-dihydrobenzo[d]pyrazolo[3,4-f][1,3]diazepine-8-carboxamide]
7.00 to 8.00 | > 8.00 | CC(=O)Nc1cccc(-c2ccc3c(c2)N=C(c2c(F)cccc2F)Nc2cn[nH]c2-3)c1 [Compound 162, N-(3-(5-(2,6-difluorophenyl)-1,4-dihydrobenzo[d]pyrazolo[3,4-f][1,3]diazepin-8-yl)phenyl)acetamide]
7.00 to 8.00 | 6.00 to 7.00 | Cc1ccc2c(c1)-c1[nH]ncc1NC(c1c(F)cccc1Br)=N2 [Compound 161, 5-(2-bromo-6-fluorophenyl)-9-methyl-1,4-dihydrobenzo[d]pyrazolo[3,4-f][1,3]diazepine]
6.00 to 7.00 | 7.00 to 8.00 | CC(C)(C)NC(=O)c1cc2c(cc1Cl)-c1n[nH]cc1N=C(c1c(F)cccc1F)N2 [Compound 201, N-(tert-butyl)-9-chloro-5-(2,6-difluorophenyl)-2,6-dihydrobenzo[d]pyrazolo[3,4-f][1,3]diazepine-8-carboxamide]
7.00 to 8.00 | 6.00 to 7.00 | OCc1ccc2c(c1)-c1[nH]ncc1N=C(c1c(F)cccc1F)N2 [Compound 50, (5-(2,6-difluorophenyl)-1,6-dihydrobenzo[d]pyrazolo[3,4-f][1,3]diazepin-9-yl)methanol]
7.00 to 8.00 | 7.00 to 8.00 | O=C(NCC(F)(F)F)c1cc2c(cc1Cl)-c1n[nH]cc1N=C(c1c(F)cccc1F)N2 [Compound 202, 9-chloro-5-(2,6-difluorophenyl)-N-(2,2,2-trifluoroethyl)-2,6-dihydrobenzo[d]pyrazolo[3,4-f][1,3]diazepine-8-carboxamide]
7.00 to 8.00 | 7.00 to 8.00 | CCNC(=O)c1cc2c(cc1Cl)-c1n[nH]cc1N=C(c1c(F)cccc1F)N2 [Compound 200, 9-chloro-5-(2,6-difluorophenyl)-N-ethyl-2,6-dihydrobenzo[d]pyrazolo[3,4-f][1,3]diazepine-8-carboxamide]
7.00 to 8.00 | 7.00 to 8.00 | Fc1ccc(-c2ccc3c(c2)N=C(c2c(F)cccc2Cl)Nc2c[nH]nc2-3)cc1 [Compound 238, 5-(2-chloro-6-fluorophenyl)-8-(4-fluorophenyl)-2,4-dihydrobenzo[d]pyrazolo[3,4-f][1,3]diazepine]
7.00 to 8.00 | 7.00 to 8.00 | Fc1cccc(-c2ccc3c(c2)N=C(c2c(F)cccc2F)Nc2c[nH]nc2-3)c1 [Compound 240, 5-(2,6-difluorophenyl)-8-(3-fluorophenyl)-2,4-dihydrobenzo[d]pyrazolo[3,4-f][1,3]diazepine]
7.00 to 8.00 | 6.00 to 7.00 | NC(=O)c1ccc2c(c1)-c1[nH]ncc1NC(c1c(F)cccc1F)=N2 [Compound 93, 5-(2,6-difluorophenyl)-1,4-dihydrobenzo[d]pyrazolo[3,4-f][1,3]diazepine-9-carboxamide]
7.00 to 8.00 | 7.00 to 8.00 | Fc1cccc(F)c1C1=Nc2cn[nH]c2-c2cn[nH]c2N1 [Compound 72, 5-(2,6-difluorophenyl)-6,7-dihydro-1H-dipyrazolo[3,4-d:3′,4′-f][1,3]diazepine]
6.00 to 7.00 | 6.00 to 7.00 | CCc1ccc2c(c1)-c1[nH]ncc1N=C(c1c(F)cccc1Cl)N2 [Compound 45, 5-(2-chloro-6-fluorophenyl)-9-ethyl-1,6-dihydrobenzo[d]pyrazolo[3,4-f][1,3]diazepine]
6.00 to 7.00 | 6.00 to 7.00 | CSc1n[nH]c2c1NC(c1c(F)cccc1F)=Nc1ccccc1-2 [Compound 146, 5-(2,6-difluorophenyl)-3-(methylthio)-1,4-dihydrobenzo[d]pyrazolo [3,4-f][1,3]diazepine]
7.00 to 8.00 | 7.00 to 8.00 | COc1ccc2c(c1F)N=C(c1c(F)cccc1F)Nc1cn[nH]c1-2 [Compound 169, 5-(2,6-difluorophenyl)-7-fluoro-8-methoxy-1,4-dihydrobenzo[d]pyrazolo[3,4-f][1,3]diazepine]
7.00 to 8.00 | 6.00 to 7.00 | Cc1cnc2c(c1)-c1[nH]ncc1N=C(c1c(F)cccc1F)N2 [Compound 61, 5-(2,6-difluorophenyl)-9-methyl-1,6-dihydropyrazolo[4,3-d]pyrido[3,2-f][1,3]diazepine]
7.00 to 8.00 | 7.00 to 8.00 | Fc1cccc(F)c1C1=Nc2cnc(OC(F)F)cc2-c2n[nH]cc2N1 [Compound 197, 9-(difluoromethoxy)-5-(2,6-difluorophenyl)-2,4-dihydropyrazolo[4,3-d]pyrido[4,3-f][1,3]diazepine]
7.00 to 8.00 | 7.00 to 8.00 | Fc1cccc(F)c1C1=Nc2c(Br)n[nH]c2-c2ccccc2N1 [Compound 69, 3-bromo-5-(2,6-difluorophenyl)-1,6-dihydrobenzo[d]pyrazolo[3,4-f][1,3]diazepine]

SMILES | pIC50 [1] | pIC50 [2]
Fc1ccc(F)c(C2=Nc3ccccc3-c3[nH]ncc3N2)c1F [Compound 32, 5-(2,3,6-trifluorophenyl)-1,4-dihydrobenzo[d]pyrazolo[3,4-f][1,3]diazepine] | 6.00 to 7.00 | 6.00 to 7.00
Fc1ccc2c(c1)-c1[nH]ncc1N=C(c1c(F)cccc1F)N2 [Compound 33, 5-(2,6-difluorophenyl)-9-fluoro-1,6-dihydrobenzo[d]pyrazolo[3,4-f][1,3]diazepine] | 7.00 to 8.00 | 7.00 to 8.00
